In patent US10597388B2, “Pyridazinone herbicides” (FMC CORPORATION, priority 2014, dated 2020):

What was measured:
Format in all cases: in vivo
[1] = test system: barnyardgrass (Echinochloa crus-galli); assay: Test A greenhouse herbicide test, pre- and postemergence
Procedure, shortened: (§1)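 Visual injury ratings, 0 (no effect) to 100 (complete control), versus untreated plants after roughly 10 d in a greenhouse. Compounds, formulated in a surfactant-containing non-phytotoxic solvent, were sprayed on loam–sand soil after sowing (pre) or on one- to two-leaf plants 2–10 cm tall (post).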

kochia (Kochia scoparia) [2] = assay: as above
Procedure, shortened: as §1

[3] = test system: pigweed (Amaranthus retroflexus); assay: as above
Procedure, shortened: as §1

[4] = test system: ragweed (common ragweed, Ambrosia elatior); assay: as above
Procedure, shortened: as §1

[5] = test system: barnyardgrass (Echinochloa crus-galli); assay: Test B flooded paddy test; settings: 250 g ai/ha, Flood; visual rating on scale of 0 to 100 where 0 is no effect and 100 is complete control; 13 to 15 d after treatment
Procedure, shortened: (§2)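 Ratings use a 0-100 visual scale, where 100 is complete control, and compare treated plants with controls after 13 to 15 d of greenhouse growth. Compound went straight into paddy water kept 3 cm over the soil surface, applied to seedlings at the 2-leaf stage.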

[6] = test system: ducksalad (Heteranthera limosa); assay: Test B flooded paddy test; settings: 250 g ai/ha, Flood; visual rating on scale of 0 to 100 where 0 is no effect and 100 is complete control; 13 to 15 d after treatment
Procedure, shortened: as §2

rice (Oryza sativa) = assay: Test B flooded paddy test; settings: 250 g ai/ha, Flood; visual rating on scale of 0 to 100 where 0 is no effect and 100 is complete control; 13 to 15 d after treatment
Procedure, shortened: as §2

[7] = test system: sedge, umbrella (small-flower umbrella sedge, Cyperus difformis); assay: Test B flooded paddy test; settings: 250 g ai/ha, Flood; visual rating on scale of 0 to 100 where 0 is no effect and 100 is complete control; 13 to 15 d after treatment
Procedure, shortened: as §2

[8] = test system: chickweed (common chickweed, Stellaria media); assay: Test C greenhouse herbicide test, postemergence
Procedure, shortened: (§3)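 Test chemicals were applied postemergence to greenhouse plants at the 1- to 4-leaf stage (2–18 cm tall) growing in peat/vermiculite medium. After 13–15 d, injury was rated visually against untreated controls on a 0–100 scale (0 = no effect, 100 = complete control).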

kochia (Kochia scoparia) [9] = assay: Test C greenhouse herbicide test, postemergence
Procedure, shortened: as §3

[10] = test system: oat, wild (wild oat, Avena fatua); assay: Test C greenhouse herbicide test, postemergence
Procedure, shortened: as §3

[11] = Postemergence, 125 g ai/ha, 0 to 100 scale where 0 is no effect and 100 is complete control
[12] = Postemergence, 500 g ai/ha, visual rating after approx. 10 d, 0 to 100 scale (0 no effect, 100 complete control)
[13] = Preemergence, 125 g ai/ha, 0 to 100 scale where 0 is no effect and 100 is complete control
[14] = Preemergence, 500 g ai/ha, 0 to 100 scale where 0 is no effect and 100 is complete control
[15] = Postemergence, 31 g ai/ha, scale 0 to 100 (0 no effect, 100 complete control)
[16] = Postemergence, 62 g ai/ha, 0 to 100 scale (0 no effect, 100 complete control)
[17] = Postemergence, 250 g ai/ha, scale 0 to 100, 0 no effect, 100 complete control, 13 to 15 d
[18] = postemergence, 125 g ai/ha, scale 0 to 100, 0 no effect, 100 complete control
[19] = Postemergence, 500 g ai/ha, 0 to 100 scale, 0 is no effect, 100 is complete control
[20] = Postemergence, 31 g ai/ha, 0 to 100 scale (0 no effect, 100 complete control)
[21] = Postemergence, 125 g ai/ha, scale 0 to 100, 0 is no effect, 100 is complete control
[22] = postemergence, 62 g ai/ha, scale 0 to 100, 0 no effect, 100 complete control
[23] = Postemergence, 1000 g ai/ha, 0 to 100 scale, 0 is no effect, 100 is complete control
[24] = Preemergence, 1000 g ai/ha, 0 to 100 scale, 0 no effect, 100 complete control

Row | SMILES | Plant response rating, Barnyardgrass [1, 11] | Barnyardgrass plant response rating [1, 13] | Plant response rating, Kochia (kochia (Kochia scoparia) [2]; [11]) | Kochia plant response rating (kochia (Kochia scoparia) [2]; [13]) | Plant response rating, Kochia (kochia (Kochia scoparia) [2]; [14]) | Plant response rating, Pigweed [3, 11] | Pigweed plant response rating [3, 13] | Plant response rating, Pigweed [3, 14] | Plant response rating, Ragweed [4, 11] | Ragweed plant response rating [4, 13] | Plant response rating, Ragweed [4, 14] | Plant response rating, Barnyardgrass [5] | Plant response rating, Ducksalad [6] | Plant response rating, Rice (rice (Oryza sativa)) | Plant response rating, Sedge, Umbrella [7] | Plant response rating, Chickweed [8, 17] | Plant response rating, Kochia (kochia (Kochia scoparia) [9]; [17]) | Plant response rating, Oat, Wild [10, 17] | Chickweed plant response rating [8, 20] | Plant response rating, Chickweed [8, 21] | further results
1 | COC(=O)Oc1c(C)nn(C)c(=O)c1-c1ccc(F)c2ccccc12 [Compound 130] | 60 | 30 | 100 | 60 | 100 | 100 | 90 | 100 | 70 | 60 | 90 | 0 | 0 | 0 | 0 | 100 | 100 | 95 | – | – | Plant response rating, Barnyardgrass [1, 12]: 90; Plant response rating, Barnyardgrass [1, 14]: 100; Plant response rating, Kochia (kochia (Kochia scoparia) [2]; [12]): 100; Plant response rating, Pigweed [3, 12]: 100; Plant response rating, Ragweed [4, 12]: 100; Plant response rating, Chickweed [8, 15]: 90; Chickweed plant response rating [8, 16]: 95; Chickweed plant response rating [8, 18]: 98; Plant response rating, Kochia (kochia (Kochia scoparia) [9]; [15]): 95; Kochia plant response rating (kochia (Kochia scoparia) [9]; [16]): 95; Kochia plant response rating (kochia (Kochia scoparia) [9]; [18]): 100; Plant response rating, Oat, Wild [10, 15]: 60; Oat, Wild plant response rating [10, 16]: 80; Oat, Wild plant response rating [10, 18]: 85
2 | Cc1sc2ccccc2c1-c1c(O)c(Cl)nn(C)c1=O [Compound 89] | 40 | 50 | 80 | 70 | 90 | 80 | 100 | 100 | 80 | 80 | 90 | 0 | 65 | 0 | 40 | 100 | 100 | 40 | 90 | 100 | Barnyardgrass plant response rating [1, 19]: 80; Plant response rating, Barnyardgrass [1, 14]: 60; Kochia plant response rating (kochia (Kochia scoparia) [2]; [19]): 90; Pigweed plant response rating [3, 19]: 90; Ragweed plant response rating [4, 19]: 90; Chickweed plant response rating [8, 22]: 95; Plant response rating, Kochia (kochia (Kochia scoparia) [9]; [21]): 90; Kochia plant response rating (kochia (Kochia scoparia) [9]; [22]): 90; Plant response rating, Oat, Wild [10, 21]: 30; Oat, Wild plant response rating [10, 22]: 10
3 | Cc1ccc2ccccc2c1-c1c(OC(=O)OC(C)C)c(C)nn(C)c1=O [Compound 72] | 20 | 10 | 60 | 50 | 100 | 90 | 100 | 100 | 70 | 90 | 90 | 0 | 0 | 0 | 0 | 90 | 90 | 95 | 90 | 90 | Barnyardgrass plant response rating [1, 19]: 60; Plant response rating, Barnyardgrass ([1]; Preemergence, 500 g ai/ha, 0 to 100 scale, 0 no effect, 100 complete control): 100; Kochia plant response rating (kochia (Kochia scoparia) [2]; [19]): 90; Pigweed plant response rating [3, 19]: 90; Ragweed plant response rating [4, 19]: 90; Chickweed plant response rating [8, 22]: 90; Kochia plant response rating (kochia (Kochia scoparia) [9]; [20]): 60; Plant response rating, Kochia (kochia (Kochia scoparia) [9]; [21]): 90; Kochia plant response rating (kochia (Kochia scoparia) [9]; [22]): 85; Oat, Wild plant response rating [10, 20]: 85; Plant response rating, Oat, Wild [10, 21]: 90; Oat, Wild plant response rating [10, 22]: 95
4 | CCc1ccc2ccccc2c1-c1c(O)c(C)nn(C)c1=O [Compound 32] | – | – | – | – | – | – | – | – | – | – | – | 0 | 0 | 0 | 0 | 100 | 95 | 100 | 90 | 100 | Barnyardgrass plant response rating [1, 23]: 90; Plant response rating, Barnyardgrass [1, 24]: 100; Kochia plant response rating (kochia (Kochia scoparia) [2]; [23]): 100; Plant response rating, Kochia (kochia (Kochia scoparia) [2]; [24]): 100; Pigweed plant response rating [3, 23]: 100; Plant response rating, Pigweed [3, 24]: 100; Ragweed plant response rating [4, 23]: 100; Plant response rating, Ragweed [4, 24]: 90; Chickweed plant response rating [8, 22]: 95; Kochia plant response rating (kochia (Kochia scoparia) [9]; [20]): 50; Plant response rating, Kochia (kochia (Kochia scoparia) [9]; [21]): 90; Kochia plant response rating (kochia (Kochia scoparia) [9]; [22]): 50; Oat, Wild plant response rating [10, 20]: 70; Plant response rating, Oat, Wild [10, 21]: 100; Oat, Wild plant response rating [10, 22]: 90
